In patent publication US20110171285A1, “Design of Fibrinogen and Fibrinogen Derived Products with Reduced Bacterial Binding by Using Modified Sequences of Fibrinogen Chains” (priority 2009, published 2011):
Ends that are not written are not given here.

Experiments:
rClfA229-545 = target: T1, rClfA229-545 (Staphylococcus aureus, UniProt Q53653); test: Isothermal titration calorimetry of Fg γ-peptide binding to rClfA229-545
T1 construct: 6xHis; made in house; host or cells: E. coli
T1 sequence (Q53653 229-545): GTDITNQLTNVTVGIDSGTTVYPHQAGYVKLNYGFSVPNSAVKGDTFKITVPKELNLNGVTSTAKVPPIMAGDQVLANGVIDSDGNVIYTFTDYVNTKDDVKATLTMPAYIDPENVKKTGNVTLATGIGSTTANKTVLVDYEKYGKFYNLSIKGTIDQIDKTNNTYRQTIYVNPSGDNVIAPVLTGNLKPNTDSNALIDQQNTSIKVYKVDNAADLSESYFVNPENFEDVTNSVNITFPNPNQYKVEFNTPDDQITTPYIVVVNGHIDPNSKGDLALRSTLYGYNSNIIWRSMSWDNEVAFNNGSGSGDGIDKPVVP
Description: Peptide 0.6-0.9 mM was injected into a cell with rClfA229-545 in a VP-ITC (MicroCal Inc.). The resulting data was analyzed using Origin 5.0 from MicroCal using a single binding site model.

ClfA229-545 = ClfA229-545 (Staphylococcus aureus, UniProt Q53653); settings: 1 μg Fg/well, varying concentrations of ClfA229-545, read at 405 nm (FIG. 6)
Description: About 3 mg lyophilized salmon Fg (batch “A”) was dissolved into 3 mg/ml in PBS. Human and salmon Fg was coated onto 4HBX microtiter plates (1 μg/well) at 4° C. over-night in Dulbecco's PBS without MgCl2 nor CaCl2 ions). The plate was blocked for 1 hour room temperature (RT) using 5% bovine serum albumin (BSA) in TBS-T. Recombinant His-tagged ClfA229-545 was added in varying concentrations to test for binding to Fg using TBS solution for 1 hour at room temperature. Bound ClfA was detected with anti-ClfA rabbit antibodies (dil 1:2000) in TBS-T with 1% BSA followed by goat anti-rabbit secondary antibodies (dil 1:2000) conjugated to alkaline phosphatase using the same buffer. Color detection was read after 30-60 min at 405 nm in a microtiter plate reader using phospatase substrate from Sigma dissolved in 1M DEA. No background subtraction, data points are triplicates except for no ClfA where six data points were used. Human or salmon Fg was coated over-night and after blocking varying concentrations of ClfA was added to Fg.

S. aureus USA300 NARSA = test: Adherence of S. aureus USA300 NARSA to Fg coated microtiter plates (crystal violet, OD 590 nm); type: cell-based; settings: 1 μg Fg/well, MRSA strain grown over-night in tryptic soy broth (FIG. 7)
Description: Microtiter plates were coated with 1 μg human or salmon Fg per well over-night at 4° C., followed by blocking with 5% bovine serum albumin in TBS-T (Tris-buffered saline with 0.05% Tween-20) in room temperature for about 1 hour. Two bacterial colonies (designated by 1 or 2 in FIG. 7) of S. aureus USA300 NARSA (an MRSA strain) were inoculated in tryptic soy broth at 37° C. over-night, washed and resuspended in PBS and various bacterial dilutions were incubated in the wells for 1 hour at room temperature. After washing in PBS, bound bacteria was fixed using 25% formaldehyde followed by 0.5% crystal violet stain. After PBS washing, 10% acetic acid was added and bound color was measured by crystal violet staining and optical density read at 590 nm in a microtiter plate reader.

Row | Substance | Kd (rClfA229-545) | binding to ClfA229-545 (rClfA229-545; ITC, in solution (FIGS. 3A and 3B)) | binding of ClfA N2N3 to coated Fg (ClfA229-545) | binding (adherence) of S. aureus USA300 to coated Fg (S. aureus USA300 NARSA)
1 | GEGQQHHLGGAKQAGDV [human 17-mer peptide] | 23 µM | – | – | –
2 | GQQHHLGGAKQAGDV [human 15-mer peptide] | 40 µM | binds to ClfA | – | –
3 | human Fg: human fibrinogen | – | – | dose-dependent binding | bound
